Test results taken from ChEMBL document CHEMBL1255412, “New mutation in 23S rRNA gene associated with high level of azithromycin resistance in Neisseria gonorrhoeae” (2010).
Converted amounts (≈) assume the structure as drawn.

What was measured:
Neisseria gonorrhoeae [1] = assay: Antimicrobial activity against Neisseria gonorrhoeae isolate 3783; assay type: functional
Neisseria gonorrhoeae [2] = assay: Antimicrobial activity against azithromycin resistant Neisseria gonorrhoeae isolate 2498 harboring C2599T mutation in peptidyltransferase loop in domain V of 23S rRNA alleles; assay type: functional
Neisseria gonorrhoeae [3] = assay: microbe, parasite or virus in culture
Description: Antimicrobial activity against azithromycin resistant Neisseria gonorrhoeae isolate harboring C2599T mutation in peptidyltransferase loop in domain V of 23S rRNA alleles and T insertion in mtrR gene promoter region

Neisseria gonorrhoeae [4] = assay: Antimicrobial activity against high-level azithromycin resistant Neisseria gonorrhoeae isolate 1782 harboring A2143G mutation in peptidyltransferase loop in domain V of 23S rRNA alleles; assay type: functional

Molecule `CC[C@H]1OC(=O)[C@H](C)[C@@H](O[C@H]2C[C@@](C)(OC)[C@@H](O)[C@H](C)O2)[C@H](C)[C@@H](O[C@@H]2O[C@H](C)C[C@H](N(C)C)[C@H]2O)[C@](C)(O)C[C@@H](C)CN(C)[C@H](C)[C@@H](O)[C@]1(C)O` [AZITHROMYCIN] has an MIC (Neisseria gonorrhoeae [1]) of 0.06 µg/mL (≈ 0.0801 µM), an MIC (Neisseria gonorrhoeae [2]) of 8 µg/mL (≈ 10.7 µM) and an MIC (Neisseria gonorrhoeae [3]) of 4 µg/mL (≈ 5.34 µM). The MIC (Neisseria gonorrhoeae [4]) was > 2050 µg/mL.
